Source: PubChem BioAssay AID248 (DTP/NCI, 2004)
Values joined by “and” are separate entries in the source; they are usually repeats but may differ in a detail not shown here. Equal entries are not always repeated. Inconclusive results and toxic doses are left out. Cut-off read from the data, not from the text of the source: active = T/C of 150% or more; inactive = T/C below 125%.

Tested on: L1210 leukemia ip in BDF1 mice, survival T/C
Test: NCI In Vivo Anticancer Drug Screen. Data for tumor model L1210 Leukemia (intraperitoneal) in B6D2F1 (BDF1) mice
Conditions: endpoint: mean survival time, higher = longer survival
How it was run: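 Tumor was transplanted into mice, which were then dosed with test compound or vehicle alone. Survival was recorded for each group, and the treated figure was expressed relative to the control figure.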

[1] = dose: 100.0 mg/kg/injection, schedule: Q04DX002 (ip), vehicle: Klucel (hydroxypropylcellulose) (HPC)
[2] = dose: 25.0 mg/kg/injection, schedule: Q01DX009 (ip), vehicle: saline with Tween-80
[3] = dose: 50.0 mg/kg/injection, schedule: Q01DX009 (ip), vehicle: saline with Tween-80
[4] = dose: 50.0 mg/kg/injection, schedule: Q04DX003 (ip), vehicle: saline with Tween-80
[5] = dose: 100.0 mg/kg/injection, schedule: Q04DX003 (ip), vehicle: saline with Tween-80
[6] = dose: 200.0 mg/kg/injection, schedule: Q04DX003 (ip), vehicle: saline with Tween-80
[7] = dose: 100.0 mg/kg/injection, schedule: Q01DX001 (ip), vehicle: carboxymethylcellulose (CMC)
[8] = dose: 200.0 mg/kg/injection, schedule: Q01DX001 (ip), vehicle: carboxymethylcellulose (CMC)
[9] = dose: 400.0 mg/kg/injection, schedule: Q01DX001 (ip), vehicle: carboxymethylcellulose (CMC)
[10] = dose: 400.0 mg/kg/injection, schedule: Q04DX003 (ip), vehicle: saline with Tween-80
[11] = dose: 100.0 mg/kg/injection, schedule: Q01DX009 (ip), vehicle: saline with Tween-80
[12] = dose: 200.0 mg/kg/injection, schedule: Q01DX009 (ip), vehicle: saline with Tween-80
[13] = dose: 100.0 mg/kg/injection, schedule: Q04DX002 (ip), vehicle: saline with Tween-80
[14] = dose: 100.0 mg/kg/injection, schedule: Q04DX003 (ip), vehicle: Klucel (hydroxypropylcellulose) (HPC)
[15] = dose: 200.0 mg/kg/injection, schedule: Q04DX002 (ip), vehicle: saline with Tween-80
[16] = dose: 200.0 mg/kg/injection, schedule: Q04DX003 (ip), vehicle: Klucel (hydroxypropylcellulose) (HPC)
[17] = dose: 400.0 mg/kg/injection, schedule: Q04DX002 (ip), vehicle: saline with Tween-80
[18] = dose: 400.0 mg/kg/injection, schedule: Q04DX003 (ip), vehicle: Klucel (hydroxypropylcellulose) (HPC)

Measured: T/C

CCOP(=O)(Cc1ccc(Cl)cc1)OCC
inactive: dose: 100.0 mg/kg/injection, schedule: Q01DX009 (ip), vehicle: carboxymethylcellulose (CMC) 102 % of control and 90 % of control | dose: 100.0 mg/kg/injection, schedule: Q04DX002 (ip), vehicle: carboxymethylcellulose (CMC) 98 % of control and 107 % of control | dose: 100.0 mg/kg/injection, schedule: Q04DX003 (ip), vehicle: carboxymethylcellulose (CMC) 96 % of control | dose: 200.0 mg/kg/injection, schedule: Q01DX009 (ip), vehicle: carboxymethylcellulose (CMC) 104 % of control and 107 % of control | dose: 200.0 mg/kg/injection, schedule: Q04DX002 (ip), vehicle: carboxymethylcellulose (CMC) 93 % of control and 101 % of control | dose: 200.0 mg/kg/injection, schedule: Q04DX003 (ip), vehicle: carboxymethylcellulose (CMC) 100 % of control | dose: 400.0 mg/kg/injection, schedule: Q04DX002 (ip), vehicle: carboxymethylcellulose (CMC) 93 % of control and 95 % of control

O=c1ccn(CCCOc2ccccc2)c(=O)[nH]1
inactive: dose: 25.0 mg/kg/injection, schedule: Q04DX002 (ip), vehicle: Klucel (hydroxypropylcellulose) (HPC) 102 % of control | dose: 50.0 mg/kg/injection, schedule: Q04DX002 (ip), vehicle: Klucel (hydroxypropylcellulose) (HPC) 102 % of control | [1] 106 % of control

O=C1CSc2ccccc2N1
inactive: dose: 12.5 mg/kg/injection, schedule: Q01DX009 (ip), vehicle: saline with Tween-80 94 % of control | [2] 100 % of control | [3] 102 % of control | [4] 103 % of control | [1] 97 % of control | [5] 103 % of control | dose: 200.0 mg/kg/injection, schedule: Q04DX002 (ip), vehicle: Klucel (hydroxypropylcellulose) (HPC) 95 % of control | [6] 92 % of control | dose: 400.0 mg/kg/injection, schedule: Q04DX002 (ip), vehicle: Klucel (hydroxypropylcellulose) (HPC) 110 % of control

CC1CCc2c(O)ccc(O)c21 (configuration not stated)
inactive: [7] 102 % of control | [8] 96 % of control | [9] 94 % of control

CCOP(=O)(OCC)OC(=O)N(CC)CC
inactive: dose: 100.0 mg/kg/injection, schedule: Q04DX002 (ip), vehicle: saline 112 % of control | dose: 200.0 mg/kg/injection, schedule: Q04DX002 (ip), vehicle: saline 120 % of control

c1cc[c]([Pb]([c]2ccccc2)([c]2ccccc2)[n]2ccc3ccccc32)cc1
inactive: dose: 1.0 mg/kg/injection, schedule: Q04DX003 (ip), vehicle: saline with Tween-80 113 % of control | dose: 1.56 mg/kg/injection, schedule: Q01DX009 (ip), vehicle: saline with Tween-80 91 % of control | dose: 2.0 mg/kg/injection, schedule: Q04DX003 (ip), vehicle: saline with Tween-80 90 % of control | dose: 3.12 mg/kg/injection, schedule: Q01DX009 (ip), vehicle: saline with Tween-80 89 % of control | dose: 4.0 mg/kg/injection, schedule: Q04DX003 (ip), vehicle: saline with Tween-80 101 % of control | dose: 8.0 mg/kg/injection, schedule: Q04DX003 (ip), vehicle: saline with Tween-80 101 % of control

COc1cc([N+](=O)[O-])ccc1S(=O)(=O)Cl
inactive: [2] 91 % of control | dose: 25.0 mg/kg/injection, schedule: Q04DX002 (ip), vehicle: saline with Tween-80 104 % of control | dose: 25.0 mg/kg/injection, schedule: Q04DX003 (ip), vehicle: saline with Tween-80 97 % of control | dose: 50.0 mg/kg/injection, schedule: Q01DX001 (ip), vehicle: saline with Tween-80 101 % of control | [3] 91 % of control | dose: 50.0 mg/kg/injection, schedule: Q04DX002 (ip), vehicle: saline with Tween-80 93 % of control and 120 % of control | [4] 103 % of control | dose: 100.0 mg/kg/injection, schedule: Q01DX001 (ip), vehicle: saline with Tween-80 92 % of control | [5] 94 % of control | [6] 88 % of control

NC(N)=Nc1ccc(C(=O)Oc2ccc([N+](=O)[O-])cc2)cc1
inactive: [5] 108 % of control | [6] 94 % of control | [10] 89 % of control

O=C(/C(=C\c1ccc(Cl)c(Cl)c1)c1ccccc1)c1ccc(O)cc1
inactive: [7] 90 % of control | [8] 101 % of control | [9] 95 % of control

CC(=O)CC(=O)Nc1cccc(Br)c1
inactive: [5] 102 % of control | [6] 97 % of control | [10] 97 % of control

CC1(C)N=C(N)N=C(N)N1c1ccc(CCNS(=O)(=O)c2ccc(S(=O)(=O)F)cc2)cc1
inactive: dose: 0.8 mg/kg/injection, schedule: Q01DX009 (ip), vehicle: saline 97 % of control | dose: 4.0 mg/kg/injection, schedule: Q01DX009 (ip), vehicle: saline 104 % of control | dose: 20.0 mg/kg/injection, schedule: Q01DX009 (ip), vehicle: saline 103 % of control | dose: 100.0 mg/kg/injection, schedule: Q01DX009 (ip), vehicle: saline 103 % of control | dose: 500.0 mg/kg/injection, schedule: Q01DX009 (ip), vehicle: saline 108 % of control

Nc1ccc(N=Nc2c(Br)cc(S(N)(=O)=O)cc2Br)c(N)n1
inactive: dose: 100.0 mg/kg/injection, schedule: Q01DX001 (ip), vehicle: saline 102 % of control | dose: 200.0 mg/kg/injection, schedule: Q01DX001 (ip), vehicle: saline 100 % of control | dose: 400.0 mg/kg/injection, schedule: Q01DX001 (ip), vehicle: saline 94 % of control

O=c1[nH]nc(-c2ccccn2)o1
inactive: [3] 97 % of control | [11] 90 % of control | [12] 97 % of control

CCC(C)C(NC(C)=O)C(=O)O (configuration not stated)
inactive: [13] 102 % of control | [14] 88 % of control | [15] 94 % of control | [16] 91 % of control | [17] 102 % of control | [18] 89 % of control

CCCCCCCCCCCCCCC/C(CC)=N/Nc1ccc([N+](=O)[O-])cc1[N+](=O)[O-]
inactive: dose: 25.0 mg/kg/injection, schedule: Q01DX001 (ip), vehicle: Klucel (hydroxypropylcellulose) (HPC) 103 % of control | dose: 50.0 mg/kg/injection, schedule: Q01DX001 (ip), vehicle: Klucel (hydroxypropylcellulose) (HPC) 101 % of control | dose: 100.0 mg/kg/injection, schedule: Q01DX001 (ip), vehicle: Klucel (hydroxypropylcellulose) (HPC) 111 % of control

O=S(=O)(c1ccccc1)C(CC(S(=O)(=O)c1ccccc1)S(=O)(=O)c1ccccc1)S(=O)(=O)c1ccccc1
inactive: [13] 119 % of control | [15] 97 % of control | [17] 90 % of control

O=C(O)CCCc1ccc([N+](=O)[O-])cc1Cl
inactive: [11] 103 % of control | [12] 105 % of control

Cc1cc(=O)[nH]n1-c1ccc([N+](=O)[O-])cc1
inactive: [14] 94 % of control | [16] 97 % of control | [18] 89 % of control
